ChEMBL document CHEMBL4421722, “Inhibitors of protein prenyltransferases” (2013)

Species on record: Rattus norvegicus
Test: Inhibition of rat recombinant geranylgeranyltransferase type I expressed in Escherichia coli assessed as residual enzyme activity for geranylgeranylation of K-Ras4B at 50 uM incubated for 30 mins in presence of [3H]GGPP by scintillation counting assay relative to control

| Structure (SMILES) | Activity [%] |
| --- | --- |
| C=CCS[C@@H]1C[C@@H](c2ccc(OC)cc2)N(S(=O)(=O)c2ccc(C)cc2)C[C@H]1C(=O)O | 108 |
| Cc1ccc(S(=O)(=O)N2[C@@H](c3ccc(C(C)(C)C)cc3)C(C(=O)O)=CC[C@H]2c2ccc(Cl)cc2)cc1 | 102 |
| COc1ccc([C@@H]2CC=C(C(C)=O)CN2S(=O)(=O)c2ccc(C)cc2)cc1OC | 83.8 |
| COc1cc([C@@H]2C[C@@H](Sc3ccccc3)[C@H](C(=O)O)CN2S(=O)(=O)c2ccc(C)cc2)cc(OC)c1OC | 83.7 |
| COc1cc([C@@H]2C[C@@H](SC3CCCC3)[C@H](C(=O)O)CN2S(=O)(=O)c2ccc(C)cc2)cc(OC)c1OC | 105 |
| Cc1ccc([C@@H]2CC=C(C(=O)O)[C@H](c3ccc(Cl)cc3)N2S(=O)(=O)c2ccccc2C)cc1 | 86.8 |
| Cc1ccc(S(=O)(=O)N2[C@@H](c3ccc(Br)cc3)C(C(=O)O)=CC[C@H]2c2ccccc2)cc1 | 74.6 |
| Cc1ccc(S(=O)(=O)N2[C@@H](c3ccc(Cl)cc3)C(C(=O)O)=CC[C@H]2c2cccc(C)c2)cc1 | 74.7 |
| Cc1ccc(S(=O)(=O)N2[C@@H](c3ccc(C(C)(C)C)cc3)C(C(=O)O)=CC[C@H]2c2cccs2)cc1 | 68.1 |
| CCCS[C@@H]1C[C@@H](c2ccc(OC)cc2)N(S(=O)(=O)c2ccccc2C)C[C@H]1C(=O)O | 88.4 |
| COc1ccc([C@@H]2CC=C(C(=O)O)[C@H](c3ccc(C)cc3)N2S(=O)(=O)c2ccc(Cl)cc2)cc1 | 72.5 |
| CCOc1ccc([C@@H]2C[C@@H](SCc3ccc(C(C)(C)C)cc3)[C@H](C(=O)O)CN2S(=O)(=O)c2ccc(C)cc2)cc1 | 46 |
| Cc1ccc(S(=O)(=O)N2C[C@@H](C(=O)O)[C@H](SCc3ccc(Cl)cc3)C[C@H]2c2ccc3c(c2)OCO3)cc1 | 37.4 |
| Cc1ccc(S(=O)(=O)N2[C@@H](c3cccc(F)c3)C(C(=O)O)=CC[C@H]2c2cccs2)cc1 | 81.8 |
| Cc1ccc([C@@H]2C[C@@H](SCc3ccc(C(C)(C)C)cc3)[C@H](C(=O)O)CN2S(=O)(=O)c2ccc(Cl)cc2)cc1 | 62 |
| CCc1ccc([C@@H]2C[C@@H](SC3CCCC3)[C@H](C(=O)O)CN2S(=O)(=O)c2ccc(C)cc2)cc1 | 87 |
| CC(C)(C)c1ccc([C@H]2C(C(=O)O)=CC[C@@H](c3ccccc3)N2S(C)(=O)=O)cc1 | 73.3 |
| Cc1ccc([C@H]2C(C(=O)O)=CC[C@@H](c3ccc(Cl)cc3)N2S(=O)(=O)c2ccc(Cl)cc2)cc1 | 53.9 |
| Cc1ccc(S(=O)(=O)N2[C@@H](c3cccc(F)c3)C(C(=O)O)=CC[C@H]2c2ccccc2F)cc1 | 75 |
| Cc1ccc([C@@H]2C[C@@H](SCc3ccc(C(C)(C)C)cc3)[C@H](C(=O)O)CN2S(=O)(=O)c2ccc(C)cc2)cc1 | 69.6 |
| CCS[C@@H]1C[C@@H](c2ccccc2)N(S(=O)(=O)c2ccc(C)cc2)C[C@H]1C(=O)O | 94.8 |
| COc1ccc([C@@H]2C[C@@H](SCc3ccc(C(C)(C)C)cc3)[C@H](C(=O)O)CN2S(=O)(=O)c2ccc(Cl)cc2)cc1 | 66 |
| CCc1ccc([C@@H]2C[C@@H](SCC(C)C)[C@H](C(=O)O)CN2S(=O)(=O)c2ccc(C)cc2)cc1 | 68.5 |
| Cc1ccc(S(=O)(=O)N2[C@@H](c3ccc(Br)cc3)C(C(=O)O)=CC[C@H]2c2cccc(F)c2)cc1 | 60.8 |
| CCCS[C@@H]1C[C@@H](c2ccc(C)cc2)N(S(=O)(=O)c2ccccc2C)C[C@H]1C(=O)O | 99.4 |
| CS(=O)(=O)N1[C@@H](c2ccc(F)cc2)C(C(=O)O)=CC[C@H]1c1ccccc1 | 67.2 |

| Structure (SMILES) | Activity [%] |
| --- | --- |
| Cc1ccc(S(=O)(=O)N2[C@@H](c3ccc(Cl)cc3)C(C(=O)O)=CC[C@H]2c2cccc(Cl)c2)cc1 | 60.4 |
| Cc1ccc([C@@H]2C[C@@H](SC3CCCC3)[C@H](C(=O)O)CN2S(=O)(=O)c2ccc(Cl)cc2)cc1 | 93.2 |
| Cc1ccc([C@@H]2CC=C(C(=O)O)[C@H](c3cccc(C)c3)N2S(=O)(=O)c2ccc(Cl)cc2)cc1 | 89.9 |
| COC(=O)c1ccccc1S(=O)(=O)N1[C@@H](c2ccc(C(C)(C)C)cc2)C(C(=O)O)=CC[C@H]1c1ccc(C)cc1 | 111 |
| Cc1ccc(S(=O)(=O)N2C[C@@H](C(=O)O)[C@H](SC3CCCC3)C[C@H]2c2ccc(Cl)cc2)cc1 | 94.7 |
| COc1ccc([C@@H]2C[C@@H](SCc3ccc(C(C)(C)C)cc3)[C@H](C(=O)O)CN2S(=O)(=O)c2ccccc2C)cc1 | 87.2 |
| Cc1ccc([C@@H]2CC=C(C(=O)O)[C@H](c3ccc(C(C)(C)C)cc3)N2S(=O)(=O)c2ccccc2C)cc1 | 80.9 |
| COc1ccc([C@@H]2C[C@@H](SCC(C)C)[C@H](C(=O)O)CN2S(=O)(=O)c2ccccc2)cc1 | 70.2 |
| COc1ccc(S[C@@H]2C[C@@H](c3ccc(Cl)cc3)N(S(=O)(=O)c3ccccc3C)C[C@H]2C(=O)O)cc1 | 85.6 |
| Cc1ccc([C@H]2C(C(=O)O)=CC[C@@H](c3ccc(C(C)C)cc3)N2S(=O)(=O)c2ccc(C)cc2)cc1 | 63.7 |
| Cc1ccc([C@H]2C(C(=O)O)=CC[C@@H](c3ccc(Cl)cc3)N2S(C)(=O)=O)cc1 | 90.6 |
| CCCCCS[C@@H]1C[C@@H](c2ccc(C)cc2)N(S(=O)(=O)c2ccc(Cl)cc2)C[C@H]1C(=O)O | 75.8 |
| CC(=O)C1=CC[C@@H](c2ccc(C)cc2)N(S(=O)(=O)c2ccc(C)cc2)C1 | 90.6 |
| C=CCS[C@@H]1C[C@@H](c2ccc(C)cc2)N(S(=O)(=O)c2ccccc2C)C[C@H]1C(=O)O | 34.5 |
| Cc1ccc(S(=O)(=O)N2[C@@H](c3cccc(F)c3)C(C(=O)O)=CC[C@H]2c2ccc3c(c2)OCO3)cc1 | 90.9 |
| CCOc1ccc([C@@H]2C[C@@H](SCC(C)C)[C@H](C(=O)O)CN2S(=O)(=O)c2ccc(C)cc2)cc1 | 83.1 |
| Cc1ccc(S(=O)(=O)N2[C@@H](c3ccc(Br)cc3)C(C(=O)O)=CC[C@H]2c2ccccc2F)cc1 | 72.8 |
| Cc1ccc([C@@H]2C[C@@H](SCc3ccc(C(C)(C)C)cc3)[C@H](C(=O)O)CN2S(=O)(=O)c2ccccc2)cc1 | 68.1 |
| Cc1ccc(S(=O)(=O)N2[C@@H](c3cccc(Br)c3)C(C(=O)O)=CC[C@H]2c2ccc(C(C)C)cc2)cc1 | 41.1 |
| COc1ccc([C@@H]2C[C@@H](SCCc3ccccc3)[C@H](C(=O)O)CN2S(=O)(=O)c2ccc(Cl)cc2)cc1 | 75.3 |
| Cc1ccc(S(=O)(=O)N2[C@@H](c3cccc(C)c3)C(C(=O)O)=CC[C@H]2c2cccc(C)c2)cc1 | 58 |
| C=CCS[C@@H]1C[C@@H](c2ccc(C)cc2)N(S(=O)(=O)c2ccccc2)C[C@H]1C(=O)O | 50.7 |
| Cc1ccc(S(=O)(=O)N2[C@@H](c3cccc(Cl)c3)C(C(=O)O)=CC[C@H]2c2ccc3c(c2)OCO3)cc1 | 73.9 |
| CCOc1ccc([C@@H]2CC=C(C(=O)O)[C@H](c3cccc(Cl)c3)N2S(=O)(=O)c2ccc(C)cc2)cc1 | 78.9 |
| COc1cccc([C@@H]2CC=C(C(=O)O)[C@H](c3ccc(F)cc3)N2S(=O)(=O)c2ccc(C)cc2)c1 | 65 |
| Cc1ccc(S(=O)(=O)N2[C@@H](c3ccc(C(C)(C)C)cc3)C(C(=O)O)=CC[C@H]2c2ccc3c(c2)OCO3)cc1 | 87.2 |

| Structure (SMILES) | Activity [%] |
| --- | --- |
| Cc1ccc(S(=O)(=O)N2[C@@H](c3cccc(F)c3)C(C(=O)O)=CC[C@H]2c2ccc(Cl)c(Cl)c2)cc1 | 45.1 |
| COc1ccc([C@@H]2C[C@@H](SCc3ccc(Cl)cc3)[C@H](C(=O)O)CN2S(=O)(=O)c2ccc(C)cc2)cc1 | 40.7 |
| COc1ccc(S[C@@H]2C[C@@H](c3ccc(OC)cc3)N(S(=O)(=O)c3ccccc3)C[C@H]2C(=O)O)cc1 | 90.5 |
| CCOc1ccc([C@@H]2CC=C(C(=O)O)[C@H](c3ccc(F)cc3)N2S(=O)(=O)c2ccc(C)cc2)cc1 | 66.2 |
| Cc1ccc([C@@H]2C[C@@H](SCc3ccccc3)[C@H](C(=O)O)CN2S(C)(=O)=O)cc1 | 81.8 |
| Cc1ccc(S(=O)(=O)N2[C@@H](c3cccc(Br)c3)C(C(=O)O)=CC[C@H]2c2ccc(Cl)cc2)cc1 | 56.6 |
| O=C(O)C1=CC[C@@H](c2ccc(Cl)cc2)N(S(=O)(=O)c2ccc(Cl)cc2)[C@H]1c1ccc(Cl)cc1 | 57.7 |
| CCc1ccc([C@@H]2CC=C(C(=O)O)[C@H](c3ccc(C)cc3)N2S(=O)(=O)c2ccc(C)cc2)cc1 | 87 |
| C=CCS[C@@H]1C[C@@H](c2ccc(Cl)cc2)N(S(=O)(=O)c2ccc(C)cc2)C[C@H]1C(=O)O | 49.1 |
| COc1ccc([C@@H]2C[C@@H](SCCC(C)C)[C@H](C(=O)O)CN2S(=O)(=O)c2ccc(Cl)cc2)cc1 | 81.4 |
| Cc1cccc([C@H]2C(C(=O)O)=CC[C@@H](c3ccccc3)N2S(C)(=O)=O)c1 | 68.1 |
| COc1ccc([C@@H]2CC=C(C(=O)O)[C@H](c3ccc(C)cc3)N2S(=O)(=O)c2ccc(C)cc2)cc1 | 73.8 |
| Cc1ccc([C@@H]2CC=C(C(=O)O)[C@H](c3cccc(Cl)c3)N2S(=O)(=O)c2ccc(Cl)cc2)cc1 | 8.4 to 60 |
| COc1cc([C@@H]2C[C@@H](SCc3ccc(C(C)(C)C)cc3)[C@H](C(=O)O)CN2S(=O)(=O)c2ccc(C)cc2)cc(OC)c1OC | 71.3 |
| COc1ccc([C@@H]2CC=C(C(=O)O)[C@H](c3ccc(C)cc3)N2S(=O)(=O)c2ccccc2C)cc1 | 86 |
| Cc1ccc([C@@H]2CC=C(C(=O)O)[C@H](c3cccc(C)c3)N2S(=O)(=O)c2ccccc2)cc1 | 69.8 |
| Cc1ccc([C@@H]2CC=C(C(=O)O)[C@H](c3cccc(Cl)c3)N2S(=O)(=O)c2ccccc2)cc1 | 56.7 |
| CCS[C@@H]1C[C@@H](c2ccc(C)cc2)N(S(=O)(=O)c2ccccc2)C[C@H]1C(=O)O | 95 |
| C=CCS[C@@H]1C[C@@H](c2ccccc2F)N(S(=O)(=O)c2ccc(C)cc2)C[C@H]1C(=O)O | 53.1 |
| C=CCS[C@@H]1C[C@@H](c2ccc3c(c2)OCO3)N(S(=O)(=O)c2ccc(C)cc2)C[C@H]1C(=O)O | 76.4 |
| COc1cccc([C@@H]2C[C@@H](SCc3ccc(Cl)cc3)[C@H](C(=O)O)CN2S(=O)(=O)c2ccc(C)cc2)c1 | 34.4 |
| Cc1ccc(S(=O)(=O)N2[C@@H](c3ccc(Br)cc3)C(C(=O)O)=CC[C@H]2c2cccs2)cc1 | 71.2 |
| COc1ccc([C@@H]2CC=C(C(=O)O)[C@H](c3ccc(C(C)(C)C)cc3)N2S(=O)(=O)c2ccccc2C)cc1 | 70.7 |
| Cc1ccc(S[C@@H]2C[C@@H](c3ccc(C)cc3)N(S(=O)(=O)c3ccc(C)cc3)C[C@H]2C(=O)O)cc1 | 62.4 |
